# Measurements published in publication PMC2869248 (Psychopharmacology, 2010).
# Experiments:
# [1] = biological target: T1, cloned human KOR (hKOR), kappa-opioid receptor (Homo sapiens, UniProt P41145); assay: biochemical
# [2] = biological target: T1, cloned human KOR (hKOR), kappa-opioid receptor
# T1 sequence (P41145 whole entry): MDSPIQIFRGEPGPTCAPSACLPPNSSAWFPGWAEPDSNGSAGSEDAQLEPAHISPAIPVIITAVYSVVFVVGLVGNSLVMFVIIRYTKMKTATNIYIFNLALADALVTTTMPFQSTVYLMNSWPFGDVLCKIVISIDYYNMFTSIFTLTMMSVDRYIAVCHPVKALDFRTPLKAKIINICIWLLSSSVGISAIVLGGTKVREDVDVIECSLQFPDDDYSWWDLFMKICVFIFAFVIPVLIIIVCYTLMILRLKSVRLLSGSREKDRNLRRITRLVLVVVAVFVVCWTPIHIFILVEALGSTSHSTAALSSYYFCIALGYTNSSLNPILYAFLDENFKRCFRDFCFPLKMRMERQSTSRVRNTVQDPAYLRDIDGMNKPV
compound,measurement,setting,value
CNC1(c2ccccc2Cl)CCCCC1=O (centres unmarked) [ketamine],EC50,[1],29 µM
same,Ki,[2],25 µM
